In US10030021B2, “Spirocyclic morphinans and use thereof” (Purdue Pharma L.P., priority 2014, dated 2018):

Molecular target: T1, μ-opioid receptor (Homo sapiens, UniProt P35372)
T1 construct: purchased Perkin Elmer, Shelton, Conn
Experiment: μ-opioid receptor [35S]GTPγS functional assay
Type: biochemical
Conditions: for Emax: maximal effect relative to DAMGO
Description: [^35S]GTPγS functional assays were conducted using freshly thawed μ-receptor membranes (Perkin Elmer, Shelton, Conn.). Assay reactions were prepared by sequentially adding the following reagents to binding buffer (100 mM NaCl, 10 mM MgCl2, 20 mM HEPES, pH 7.4) on ice (final concentrations indicated): membrane protein (0.026 mg/mL), saponin ([…]), GDP ([…]) and [^35S]GTPγS (0.20 nM; Perkin Elmer, Shelton, Conn.). The prepared membrane solution (190 μl/well) was transferred to 96-shallow well polypropylene plates containing 10 μl of 20× concentrated stock solutions of the agonist [D-Ala^2, N-methyl-Phe^4 Gly-ol^5]-enkephalin (DAMGO) prepared in dimethyl sulfoxide (DMSO). Plates were incubated for 30 min at about 25° C. with shaking. Reactions were terminated by rapid filtration onto 96-well Unifilter GF/B filter plates (Perkin Elmer, Shelton, Conn.) using a 96-well tissue harvester (Perkin Elmer, Shelton, Conn.) followed by three filtration washes with 200 μl of ice-cold wash buffer (10 mM NaH2PO4, 10 mM Na2HPO4, pH 7.4). Filter plates were subsequently dried at 50° C. for 2-3 hours. BetaScint scintillation cocktail (Perkin Elmer, Shelton, Conn.) was added (50 μl/well) and plates were counted using a Packard Top-Count for 1 min/well. Data were analyzed using the sigmoidal dose-response curve fitting functions in GraphPad PRISM v. 3.0, or an in-house function for non-linear, sigmoidal dose-response curve-fitting.
μ GTP EC50 is the concentration of a compound providing 50% of the maximal response for the compound at a μ-opioid receptor.
μ GTP Emax (%) is the maximal effect elicited by a compound relative to the effect elicited by DAMGO, a standard agonist. Generally, the μ GTP Emax (%) value measures the efficacy of a compound to treat or prevent pain or other Conditions.

T1 sequence (P35372 whole entry, species assumed): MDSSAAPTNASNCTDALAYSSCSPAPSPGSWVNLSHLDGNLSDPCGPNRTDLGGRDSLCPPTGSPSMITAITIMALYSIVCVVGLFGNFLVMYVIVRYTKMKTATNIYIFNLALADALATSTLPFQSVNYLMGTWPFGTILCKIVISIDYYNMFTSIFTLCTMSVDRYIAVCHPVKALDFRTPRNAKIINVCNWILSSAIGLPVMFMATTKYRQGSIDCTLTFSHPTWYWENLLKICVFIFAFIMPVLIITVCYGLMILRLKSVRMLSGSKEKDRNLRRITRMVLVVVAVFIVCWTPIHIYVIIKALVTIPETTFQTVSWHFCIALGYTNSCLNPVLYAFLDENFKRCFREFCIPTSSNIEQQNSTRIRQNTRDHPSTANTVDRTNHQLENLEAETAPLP

SMILES | EC50 | Emax
CCN1C(=O)N(CC)[C@]2(CC[C@@]3(O)[C@H]4Cc5ccc(OC)cc5[C@@]3(CCN4CCN(C)C)C2)C1=O [Compound 8, (4S,4b′R,8a′S,9′R)-11′-(2-(dimethylamino)ethyl)-1,3-diethyl-8a′-hydroxy-3′-methoxy-8′,8a′,9′,10′-tetrahydro-5′H,7′H-spiro[imidazolidine-4,6′-[9,4b](epiminoethano)phenanthrene]-2,5-dione] | > 20 µM | 1%
COc1ccc2c(c1)[C@]13CCN[C@H](C2)[C@]1(O)CC[C@]1(C3)C(=O)N(CC2CC2)C(=O)N1CC1CC1 [Compound 17, (4S,4b′R,8a′S,9′R)-1,3-bis(cyclopropylmethyl)-8a′-hydroxy-3′-methoxy-8′,8a′,9′,10′-tetrahydro-5′H,7′H-spiro[imidazolidine-4,6′-[9,4b](epiminoethano)phenanthrene]-2,5-dione] | > 20 µM | 26 ± 5.51%
CCN1C(=O)N(CC)[C@]2(CC[C@@]3(O)[C@H]4Cc5ccc(O)cc5[C@@]3(CCN4)C2)C1=O [Compound 20, (4S,4b′R,8a′S,9′R)-1,3-diethyl-3′,8a′-dihydroxy-8′,8a′,9′,10′-tetrahydro-5′H,7′H-spiro[imidazolidine-4,6′-[9,4b](epiminoethano)phenanthrene]-2,5-dione] | 1.88 ± 0.252 µM | 28 ± 1.53%
CN(C)CCN1CC[C@]23C[C@@]4(CC[C@@]2(O)[C@H]1Cc1ccc(O)cc13)C(=O)N(CC1CC1)C(=O)N4CC1CC1 [Compound 25, (4S,4b′R,8a′S,9′R)-1,3-bis(cyclopropylmethyl)-11′-(2-(dimethylamino)ethyl)-3′,8a′-dihydroxy-8′,8a′,9′,10′-tetrahydro-5′H,7′H-spiro[imidazolidine-4,6′-[9,4b](epiminoethano)-phenanthrene]-2,5-dione] | > 20 µM | 1%
COc1ccc2c(c1)[C@]13CCN(CCCN(C)C)[C@H](C2)[C@]1(O)CC[C@]1(C3)C(=O)N(CC2CC2)C(=O)N1CC1CC1 [Compound 13, (4S,4b′R,8a′S,9′R)-1,3-bis(cyclopropylmethyl)-11′-(3-(dimethylamino)propyl)-8a′-hydroxy-3′-methoxy-8′,8a′,9′,10′-tetrahydro-5′H,7′H-spiro[imidazolidine-4,6′-[9,4b]-(epiminoethano)phenanthrene]-2,5-dione] | > 20 µM | 1%
CCN1C(=O)N(CC)[C@]2(CC[C@@]3(O)[C@H]4Cc5ccc(C#N)cc5[C@@]3(CCN4C)C2)C1=O [Compound 32, (4S,4b′R,8a′S,9′R)-1,3-diethyl-8a′-hydroxy-11′-methyl-2,5-dioxo-8′,8a′,9′,10′-tetrahydro-5′H,7′H-spiro[imidazolidine-4,6′-[9,4b](epiminoethano)phenanthrene]-3′-carbonitrile] | > 20 µM | 16.3 ± 1.76%
CCN1C(=O)N(CC)[C@]2(CC[C@@]3(O)[C@H]4Cc5ccc(OC)cc5[C@@]3(CCN4)C2)C1=O [Compound 18, (4S,4b′R,8a′S,9′R)-1,3-diethyl-8a′-hydroxy-3′-methoxy-8′,8a′,9′,10′-tetrahydro-5′H,7′H-spiro[imidazolidine-4,6′-[9,4b](epiminoethano)phenanthrene]-2,5-dione] | > 20 µM | 35.7 ± 1.2%
CCN1C(=O)N(CC)[C@]2(CC[C@@]3(O)[C@H]4Cc5ccc(/C(N)=N\O)cc5[C@@]3(CCN4C)C2)C1=O [Compound 34, (4S,4b′R,8a′S,9′R,E)-1,3-diethyl-N′,8a′-dihydroxy-11′-methyl-2,5-dioxo-8′,8a′,9′,10′-tetrahydro-5′H,7′H-spiro[imidazolidine-4,6′-[9,4b](epiminoethano)phenanthrene]-3′-carboximidamide] | 17.2 ± 1.2 µM | 29.7 ± 1.18%
CCN1C(=O)N(CC)[C@]2(CC[C@@]3(O)[C@H]4Cc5ccc(O)cc5[C@@]3(CCN4CCc3ccccc3)C2)C1=O [Compound 24, (4S,4b′R,8a′S,9′R)-1,3-diethyl-3′,8a′-dihydroxy-11′-phenethyl-8′,8a′,9′,10′-tetrahydro-5′H,7′H-spiro[imidazolidine-4,6′-[9,4b](epiminoethano)phenanthrene]-2,5-dione] | 0.073 ± 0.0197 µM | 65.3 ± 4.26%
CCN1C(=O)N(CC)[C@]2(CC[C@@]3(O)[C@H]4Cc5ccc(OC)cc5[C@@]3(CCN4CCCN(C)C)C2)C1=O [Compound 14, (4S,4b′R,8a′S,9′R)-11′-(3-(dimethylamino)propyl)-1,3-diethyl-8a′-hydroxy-3′-methoxy-8′,8a′,9′,10′-tetrahydro-5′H,7′H-spiro[imidazolidine-4,6′-[9,4b](epiminoethano)-phenanthrene]-2,5-dione] | > 20 µM | 1%
O=C1N(CC2CC2)C(=O)[C@@]2(CC[C@@]3(O)[C@H]4Cc5ccc(O)cc5[C@@]3(CCN4)C2)N1CC1CC1 [Compound 23, (4S,4b′R,8a′S,9′R)-1,3-bis(cyclopropylmethyl)-3′,8a′-dihydroxy-8′,8a′,9′,10′-tetrahydro-5′H,7′H-spiro[imidazolidine-4,6′-[9,4b](epiminoethano)phenanthrene]-2,5-dione] | 3.79 ± 0.287 µM | 15.7 ± 0.33%
COc1ccc2c(c1)[C@]13CCN(CCN(C)C)[C@H](C2)[C@]1(O)CC[C@@]1(C3)NC(=O)NC1=O [Compound 3, (4S,4b′R,8a′S,9′R)-11′-(2-(dimethylamino)ethyl)-8a′-hydroxy-3′-methoxy-8′,8a′,9′,10′-tetrahydro-5′H,7′H-spiro[imidazolidine-4,6′-[9,4b](epiminoethano)phenanthrene]-2,5-dione] | > 20 µM | -0.8%
O=C1NC(=O)[C@@]2(CC[C@@]3(O)[C@H]4Cc5ccc(O)cc5[C@@]3(CCN4)C2)N1 [Compound 22, (4S,4b′R,8a′S,9′R)-3′,8a′-dihydroxy-8′,8a′,9′,10′-tetrahydro-5′H,7′H-spiro[imidazolidine-4,6′-[9,4b](epiminoethano)phenanthrene]-2,5-dione] | 2.85 ± 0.216 µM | 71.7 ± 2.6%
CN(C)CCN1CC[C@]23C[C@]4(CC[C@@]2(O)[C@H]1Cc1ccc(O)cc13)NC(=O)NC4=O [Compound 29, (4S,4b′R,8a′S,9′R)-11′-(2-(dimethylamino)ethyl)-3′,8a′-dihydroxy-8′,8a′,9′,10′-tetrahydro-5′H,7′H-spiro[imidazolidine-4,6′-[9,4b](epiminoethano)phenanthrene]-2,5-dione] | 3.92 ± 0.571 µM | 23.4 ± 1.68%
CN1CC[C@]23C[C@]4(CC[C@H]2[C@H]1Cc1ccc(O)cc13)NC(=O)NC4=O [Compound 19, (4S,4b′S,8a′R,9′R)-3′-hydroxy-11′-methyl-8′,8a′,9′,10′-tetrahydro-5′H,7′H-spiro[imidazolidine-4,6′-[9,4b](epiminoethano)phenanthrene]-2,5-dione] | 0.097 ± 0.0115 µM | 54.6 ± 3.04%
CCN1C(=O)N(CC)[C@]2(CC[C@@]3(O)[C@H]4Cc5ccc(C(N)=O)cc5[C@@]3(CCN4C)C2)C1=O [Compound 33, (4S,4b′R,8a′S,9′R)-1,3-diethyl-8a′-hydroxy-11′-methyl-2,5-dioxo-8′,8a′,9′,10′-tetrahydro-5′H,7′H-spiro[imidazolidine-4,6′-[9,4b](epiminoethano)phenanthrene]-3′-carboxamide] | 0.974 ± 0.117 µM | 39.3 ± 1.78%
CN(C)CCCN1CC[C@]23C[C@]4(CC[C@@]2(O)[C@H]1Cc1ccc(O)cc13)NC(=O)NC4=O [Compound 30, (4S,4b′R,8a′S,9′R)-11′-(3-(dimethylamino)propyl)-3′,8a′-dihydroxy-8′,8a′,9′,10′-tetrahydro-5′H,7′H-spiro[imidazolidine-4,6′-[9,4b](epiminoethano)phenanthrene]-2,5-dione] | > 20 µM | 1%
CCN1C(=O)N(CC)[C@]2(CC[C@@]3(O)[C@H]4Cc5ccc(O)cc5[C@@]3(CCN4CCN(C)C)C2)C1=O [Compound 26, (4S,4b′R,8a′S,9′R)-11′-(2-(dimethylamino)ethyl)-1,3-diethyl-3′,8a′-dihydroxy-8′,8a′,9′,10′-tetrahydro-5′H,7′H-spiro[imidazolidine-4,6′-[9,4b](epiminoethano)phenanthrene]-2,5-dione] | > 20 µM | 0.5%
CN(C)CCCN1CC[C@]23C[C@@]4(CC[C@@]2(O)[C@H]1Cc1ccc(O)cc13)C(=O)N(CC1CC1)C(=O)N4CC1CC1 [Compound 28, (4S,4b′R,8a′S,9′R)-1,3-bis(cyclopropylmethyl)-11′-(3-(dimethylamino)propyl)-3′,8a′-dihydroxy-8′,8a′,9′,10′-tetrahydro-5′H,7′H-spiro[imidazolidine-4,6′-[9,4b](epiminoethano)-phenanthrene]-2,5-dione] | > 20 µM | 1.36%
COc1ccc2c(c1)[C@]13CCN(CCCN(C)C)[C@H](C2)[C@]1(O)CC[C@@]1(C3)NC(=O)NC1=O [Compound 4, (4S,4b′R,8a′S,9′R)-11′-(3-(dimethylamino)propyl)-8a′-hydroxy-3′-methoxy-8′,8a′,9′,10′-tetrahydro-5′H,7′H-spiro[imidazolidine-4,6′-[9,4b](epiminoethano)phenanthrene]-2,5-dione] | > 20 µM | -1 ± 0.003%
